# Measurements: patent US12144886B2, “Perineural administration of resiniferatoxin for treatment of maladaptive pain” (Sorrento Therapeutics, Inc., priority 2018, dated 2024)
# System: declawed cat with maladaptive pain
# Assay: Feline Musculoskeletal Pain Index (FMPI) in a declawed cat after perineural RTX nerve blocks
# Type: in vivo
# Set-up: key to FMPI Q5 (jumping down) / FMPI Q6 (climbing upstairs) / FMPI Q7 (going down stairs) / FMPI Q8 (playing with/chasing toys) / FMPI Q9 (playing and interacting with other pets) / FMPI Q10 (getting up from a resting position) / FMPI Q11 (lying or sitting down) / FMPI Q12 (stretching) / FMPI Q13 (grooming) / FMPI Q14 (interacting with the owner) / FMPI Q15 (being touched or handled) / FMPI Q16 (eating) / FMPI Q17 (using the litter box) / FMPI Q1 (walking) / FMPI Q2 (running) / FMPI Q3 (jumping up) / FMPI Q4 (jumping up to kitchen counter height): 4 = normal; 3 = near normal; 2 = Moderately worse than normal; 1 = Barely, or with great effort; 0 = not at all
# Details: one cat, 2.5 μg/forelimb perineural
# Protocol: Each dose of 5 μg/cat or 2.5 μg/forelimb will be formulated in 1 cc insulin syringes by diluting 0.1 mL: (2.5 μg) of RTX in 0.9 mL sterile saline for injection immediately before use. For treatment, a total of 1.0 mL (2.5 μg) will be injected as nerve blocks, distributed equally (0.25 ml per injection site) over 4 injection sites for each forelimb.
# Four point nerve blocks are performed by injection of 0.25 mL RTX each into the 1) superficial branches of the radial nerve, 2) dorsal branch of the ulnar nerve, 3) median nerve and superficial branch of the palmar branch of the ulnar nerve, and 4) deep branch of the palmar branch of the ulnar nerve. The nerve blocks for each forelimb are performed following a published technique for locoregional block of the manus in cats (Enomoto et al. (2016) J. Feline Med. Surg. 18:838-845). To block the superficial branches of the radial nerve (RSbr nn), the limb is positioned with the dorsal aspect facing upwards and the carpus in 180° of extension. A 25 G×⅝-inch needle is inserted subcutaneously (SC) from a point at the center of the limb at the level of the antebrachiocarpal joint. The needle is advanced approximately 10 mm SC at a 10-20° angle to the long axis of the limb with the bevel facing up. Once the tip of the needle is 3-5 mm from the confluence point of the accessory cephalic and cephalic veins, the injection is made (0.25 mL). To block the dorsal branch of the ulnar nerve (UDbr n), the limb is positioned with the lateral aspect facing upwards. A point is located lateral to and at the same level as the accessory carpal bone (ACb), positioned between the ACb and the styloid process of the ulna (SpU). A 25 G×⅝-inch needle is inserted SC distal to proximal, so the tip lies at the midpoint of the groove formed between ACb and the SpU, and then the injection is made (0.25 mL). To block the median nerve (M n) and superficial branch of the palmar branch of the ulnar nerve (UPbrS n), the limb is positioned with the palmar aspect facing upwards. A 25 G×⅝-inch needle is inserted SC at the distal border of the carpal pad and approximately 5 mm lateral to it, perpendicular to the long axis of the metacarpus, with the bevel facing up. The needle is inserted SC until the point is located two-thirds of the distance from the lateral aspect of the limb to the medial aspect. Two-thirds of the injectate volume is deposited at this point and the remaining volume is injected while the needle is withdrawn (0.25 mL). Gentle massage is applied to the injected volume under the skin for 5 seconds. To block the deep branch of the palmar branch of the ulnar nerve (UPbrDp n), the limb is positioned with the palmar aspect facing upwards. A 25 G×⅝-inch needle is inserted almost perpendicular to the ACb in a mediolateral direction such that the needle contacts the medial palmar aspect of the midpoint of the ACb with the bevel facing up. The needle is then redirected dorsally and advanced on the medial side of the ACb 2-3 mm until it penetrates the flexor retinaculum, and then the injection is made (0.25 mL).
# The effectiveness of the injection with RTX is assessed at days 3, 7, and 14 using owner videography for qualitative assessment (jumping, manipulation of the limb), and cats will also be evaluated using the Feline Musculoskeletal Pain Index (FMPI) and the Client Specific Outcome Measure (CSOM).
# For FMPI, cats are scored for 17 attributes designated Q1-Q17 using a scale of 0-4, where 0=not at all, 1=barely or with great effort, 2=moderately worse than normal, 3=near normal, and 4=normal. The total FMPI score is the sum of scores for each question. Higher totals indicate less impairment with a possible range of (0-68). For analysis, total score or percent possible can be used. […]
structure (smiles),measurement,setting,value
"C=C(C)[C@]12C[C@@H](C)[C@@]34O[C@](Cc5ccccc5)(O[C@@H]1[C@@H]3C=C(COC(=O)Cc1ccc(O)c(OC)c1)C[C@]1(O)C(=O)C(C)=C[C@@H]41)O2 [RTX, resiniferatoxin]",FMPI % poss,Day 0 (baseline),0.69
same,FMPI Q1 (walking),Day 0 (baseline),2
same,FMPI Q2 (running),Day 0 (baseline),1
same,FMPI Q3 (jumping up),Day 0 (baseline),3
same,FMPI Q4 (jumping up to kitchen counter height),Day 0 (baseline),0
same,FMPI Q5 (jumping down),Day 0 (baseline),2
same,FMPI Q6 (climbing upstairs),Day 0 (baseline),4
same,FMPI Q7 (going down stairs),Day 0 (baseline),4
same,FMPI Q8 (playing with/chasing toys),Day 0 (baseline),3
same,FMPI Q9 (playing and interacting with other pets),Day 0 (baseline),2
same,FMPI Q10 (getting up from a resting position),Day 0 (baseline),4
same,FMPI Q11 (lying or sitting down),Day 0 (baseline),4
same,FMPI Q12 (stretching),Day 0 (baseline),3
same,FMPI Q13 (grooming),Day 0 (baseline),3
same,FMPI Q14 (interacting with the owner),Day 0 (baseline),3
same,FMPI Q15 (being touched or handled),Day 0 (baseline),2
same,FMPI Q16 (eating),Day 0 (baseline),4
same,FMPI Q17 (using the litter box),Day 0 (baseline),3
same,FMPI Total score (possible range 0-68),Day 0 (baseline),47
same,FMPI % poss,Day 3,0.71
same,FMPI Q1 (walking),Day 3,3
same,FMPI Q2 (running),Day 3,2
same,FMPI Q3 (jumping up),Day 3,3
same,FMPI Q4 (jumping up to kitchen counter height),Day 3,2
same,FMPI Q5 (jumping down),Day 3,3
same,FMPI Q6 (climbing upstairs),Day 3,*3
same,FMPI Q7 (going down stairs),Day 3,*3
same,FMPI Q8 (playing with/chasing toys),Day 3,3
same,FMPI Q9 (playing and interacting with other pets),Day 3,*1
same,FMPI Q10 (getting up from a resting position),Day 3,4
same,FMPI Q11 (lying or sitting down),Day 3,4
same,FMPI Q12 (stretching),Day 3,*2
same,FMPI Q13 (grooming),Day 3,3
same,FMPI Q14 (interacting with the owner),Day 3,3
same,FMPI Q15 (being touched or handled),Day 3,2
same,FMPI Q16 (eating),Day 3,4
same,FMPI Q17 (using the litter box),Day 3,3
same,FMPI Total score (possible range 0-68),Day 3,48
same,FMPI % poss,Day 7,0.81
same,FMPI Q1 (walking),Day 7,3
same,FMPI Q2 (running),Day 7,3
same,FMPI Q3 (jumping up),Day 7,3
same,FMPI Q4 (jumping up to kitchen counter height),Day 7,3
same,FMPI Q5 (jumping down),Day 7,3
same,FMPI Q6 (climbing upstairs),Day 7,4
same,FMPI Q7 (going down stairs),Day 7,4
same,FMPI Q8 (playing with/chasing toys),Day 7,3
same,FMPI Q9 (playing and interacting with other pets),Day 7,2
same,FMPI Q10 (getting up from a resting position),Day 7,4
same,FMPI Q11 (lying or sitting down),Day 7,4
same,FMPI Q12 (stretching),Day 7,3
same,FMPI Q13 (grooming),Day 7,3
same,FMPI Q14 (interacting with the owner),Day 7,3
same,FMPI Q15 (being touched or handled),Day 7,3
same,FMPI Q16 (eating),Day 7,4
same,FMPI Q17 (using the litter box),Day 7,3
same,FMPI Total score (possible range 0-68),Day 7,55
same,FMPI % poss,Day 14,0.84
same,FMPI Q1 (walking),Day 14,3
same,FMPI Q2 (running),Day 14,3
same,FMPI Q3 (jumping up),Day 14,4
same,FMPI Q4 (jumping up to kitchen counter height),Day 14,3
same,FMPI Q5 (jumping down),Day 14,3
same,FMPI Q6 (climbing upstairs),Day 14,4
same,FMPI Q7 (going down stairs),Day 14,4
same,FMPI Q8 (playing with/chasing toys),Day 14,3
same,FMPI Q9 (playing and interacting with other pets),Day 14,3
same,FMPI Q10 (getting up from a resting position),Day 14,4
same,FMPI Q11 (lying or sitting down),Day 14,4
same,FMPI Q12 (stretching),Day 14,3
same,FMPI Q13 (grooming),Day 14,3
same,FMPI Q14 (interacting with the owner),Day 14,3
same,FMPI Q15 (being touched or handled),Day 14,3
same,FMPI Q16 (eating),Day 14,4
same,FMPI Q17 (using the litter box),Day 14,3
same,FMPI Total score (possible range 0-68),Day 14,57
same,FMPI % poss,Screening (baseline),0.69
same,FMPI Q1 (walking),Screening (baseline),2
same,FMPI Q2 (running),Screening (baseline),1
same,FMPI Q3 (jumping up),Screening (baseline),3
same,FMPI Q4 (jumping up to kitchen counter height),Screening (baseline),0
same,FMPI Q5 (jumping down),Screening (baseline),2
same,FMPI Q6 (climbing upstairs),Screening (baseline),4
same,FMPI Q7 (going down stairs),Screening (baseline),4
same,FMPI Q8 (playing with/chasing toys),Screening (baseline),3
same,FMPI Q9 (playing and interacting with other pets),Screening (baseline),2
same,FMPI Q10 (getting up from a resting position),Screening (baseline),4
same,FMPI Q11 (lying or sitting down),Screening (baseline),4
same,FMPI Q12 (stretching),Screening (baseline),3
same,FMPI Q13 (grooming),Screening (baseline),3
same,FMPI Q14 (interacting with the owner),Screening (baseline),3
same,FMPI Q15 (being touched or handled),Screening (baseline),2
same,FMPI Q16 (eating),Screening (baseline),4
same,FMPI Q17 (using the litter box),Screening (baseline),3
same,FMPI Total score (possible range 0-68),Screening (baseline),47
